Reference: ChEMBL document CHEMBL1133187, “Novel antiarthritic agents with 1,2-isothiazolidine-1,1-dioxide (gamma-sultam) skeleton: cytokine suppressive dual inhibitors of cyclooxygenase-2 and 5-lipoxygenase” (J Med Chem, 2000)

What was measured:
Rattus norvegicus [1] = species on record: Rattus norvegicus; assay: Dose required for Ulcerogenic effect; format: functional
Rattus norvegicus [2] = assay: Dose required for 30% inhibition of carrageenan-induced edema; format: functional
Rattus norvegicus [3] = species on record: Rattus norvegicus
Description: Lengths of bleeding ulcer of drug-administered group

Rattus norvegicus [4] = species on record: Rattus norvegicus; assay: (§1) Inhibitory effect for increase in plasma prostaglandin E2 (PGE2) level after arachidonic acid (AA) injection into COX-2 lipopolysaccharide-treated rats; format: functional
Cyclooxygenase = target: T1, Cyclooxygenase (Rattus norvegicus, UniProt P35355+Q63921)
T1 sequence (P35355 whole entry): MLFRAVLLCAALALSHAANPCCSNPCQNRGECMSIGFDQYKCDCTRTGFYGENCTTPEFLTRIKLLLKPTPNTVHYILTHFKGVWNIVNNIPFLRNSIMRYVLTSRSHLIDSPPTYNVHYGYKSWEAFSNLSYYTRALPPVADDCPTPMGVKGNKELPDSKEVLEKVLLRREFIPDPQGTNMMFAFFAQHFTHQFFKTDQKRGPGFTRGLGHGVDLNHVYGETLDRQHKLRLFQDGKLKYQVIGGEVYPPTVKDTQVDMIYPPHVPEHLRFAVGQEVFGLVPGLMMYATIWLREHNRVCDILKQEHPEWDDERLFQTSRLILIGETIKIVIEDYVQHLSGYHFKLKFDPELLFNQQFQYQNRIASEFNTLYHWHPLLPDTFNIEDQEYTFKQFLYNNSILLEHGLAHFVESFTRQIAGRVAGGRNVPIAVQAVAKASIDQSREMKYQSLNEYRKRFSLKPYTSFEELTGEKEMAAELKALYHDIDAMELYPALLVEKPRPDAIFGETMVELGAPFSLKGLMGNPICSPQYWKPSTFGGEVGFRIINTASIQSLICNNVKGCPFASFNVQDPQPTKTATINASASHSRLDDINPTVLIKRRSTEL
T1 sequence (Q63921 whole entry): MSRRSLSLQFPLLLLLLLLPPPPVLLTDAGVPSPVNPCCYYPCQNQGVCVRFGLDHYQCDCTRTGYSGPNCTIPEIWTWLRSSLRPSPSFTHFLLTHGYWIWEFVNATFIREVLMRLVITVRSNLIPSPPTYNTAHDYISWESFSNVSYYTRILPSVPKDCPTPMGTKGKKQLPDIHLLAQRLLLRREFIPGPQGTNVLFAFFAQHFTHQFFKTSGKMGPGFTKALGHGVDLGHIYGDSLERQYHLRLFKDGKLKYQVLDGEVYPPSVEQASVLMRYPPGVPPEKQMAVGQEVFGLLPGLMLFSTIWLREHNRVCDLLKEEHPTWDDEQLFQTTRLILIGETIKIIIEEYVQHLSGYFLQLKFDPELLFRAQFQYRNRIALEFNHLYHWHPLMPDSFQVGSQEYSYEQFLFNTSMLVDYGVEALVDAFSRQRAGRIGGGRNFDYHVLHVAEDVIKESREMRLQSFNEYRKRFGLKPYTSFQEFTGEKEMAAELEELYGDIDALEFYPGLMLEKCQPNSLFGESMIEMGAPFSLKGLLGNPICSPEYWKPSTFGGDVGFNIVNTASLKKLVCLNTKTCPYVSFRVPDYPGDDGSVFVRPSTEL
Description: In vitro inhibitory effect on production of prostaglandin E2 (PGE2) in rat synovial cells.

THP-1 [5] = assay: In vitro effect on production of lipopolysaccharide (LPS) -induced IL1-beta in human THP-1 cells; format: functional, cell-based
Rattus norvegicus [6] = species on record: Rattus norvegicus; assay: Dose required for 30% inhibition of adjuvant-induced arthritis; format: functional
Rattus norvegicus [7] = species on record: Rattus norvegicus; assay: In vitro effect on production of calcium ionophore (A23187) -induced Leukotriene B4 (LTB4) in rat peritoneal cells; format: functional, cell-based
Rattus norvegicus [8] = species on record: Rattus norvegicus; assay: (§2) Inhibitory effect for increase in plasma prostaglandin E2 (PGE2) level after arachidonic acid (AA) injection into COX-1 non-lipopolysaccharide-treated rats; format: functional
Rattus norvegicus [9] = species on record: Rattus norvegicus; assay: In vitro inhibitory effect on production of, Prostaglandin E2 (PGE2) in rat synovial cells; format: functional
THP-1 [10] = assay: In vitro inhibitory effect on production of, lipopolysaccharide (LPS) -induced IL1-beta in human THP-1 cells; format: functional, cell-based
Rattus norvegicus [11] = species on record: Rattus norvegicus; assay: In vitro inhibitory effect on production of, calcium ionophore (A23187) -induced Leukotriene B4 (LTB4) in rat peritoneal cells; format: functional, cell-based
Rattus norvegicus [12] = assay: Percent inhibition of carrageenan-induced foot-pad edema at 30 mg/kg po; format: functional
Homo sapiens [13] = species on record: Homo sapiens; assay: Inhibitory effect on production of (COX-1) thromboxane B2 (TXB2) in human platelet cells; format: functional, cell-based
Rattus norvegicus [14] = species on record: Rattus norvegicus; assay: as §1; format: functional, organism-based
Rattus norvegicus [15] = species on record: Rattus norvegicus; assay: as §2; format: functional, organism-based
[16] = (§3) Inhibitory effect on production of cyclooxygenase-2 (COX-2) prostaglandin E2 (PGE2) in human IL1-beta stimulated synovial cells; format: functional
Rattus norvegicus [17] = assay: Percent inhibition of adjuvant-induced arthritis at 10 mg/kg po; format: functional
Homo sapiens [18] = species on record: Homo sapiens; assay: Inhibitory effect on production of cyclooxygenase-1 (COX-1) thromboxane B2 (TXB2) in human platelet cells
[19] = as §3

| Structure (SMILES) | IC50 (Cyclooxygenase) [µM] | IC50 (THP-1 [5]) [µM] | IC50 (Rattus norvegicus [7]) [µM] | inhibition in vivo at 30 mg/kg (Rattus norvegicus [12]) [%] | other results |
| --- | --- | --- | --- | --- | --- |
| NC(=O)N1C(=O)/C(=C(\O)c2cccs2)c2cc(Cl)ccc21 [TENIDAP] | 0.053 | 16 | 45 |  | Dose (Rattus norvegicus [1]): 30 mg/kg; ED30 (Rattus norvegicus [2]): 4 mg/kg; Ulcer index (Rattus norvegicus [3]): 12.9 mm; ED50 (Rattus norvegicus [4]): 0.05 mg/kg; ED30 (Rattus norvegicus [6]): 1 mg/kg; ED50 (Rattus norvegicus [8]): 0.025 mg/kg |
| CCN1CC/C(=C\c2ccc(O)cc2)S1(=O)=O |  |  |  |  | IC50 (Rattus norvegicus [9]): > 1000 nM; IC50 (THP-1 [10]): > 100 µM; IC50 (Rattus norvegicus [11]): > 100 µM |
| CCN1CC/C(=C\c2ccc(O)c(OC)c2)S1(=O)=O |  |  |  |  | IC50 (Rattus norvegicus [9]): > 1000 nM; IC50 (THP-1 [10]): > 100 µM; IC50 (Rattus norvegicus [11]): > 100 µM |
| CC(C)(C)c1cc(/C=C2\CCCNS2(=O)=O)cc(C(C)(C)C)c1O | 0.0062 | 56 | 74 | 14.7 |  |
| CC(C)(C)c1cc(/C=C2\CCN(c3ccncc3)S2(=O)=O)cc(C(C)(C)C)c1O | 0.41 |  |  |  |  |
| CC(C)(C)c1cc(/C=C2/CCNS2(=O)=O)cc(C(C)(C)C)c1O | < 0.001 | 27 | 1.8 | 10.8 |  |
| CN1CC/C(=C/c2cc(C(C)(C)C)c(O)c(C(C)(C)C)c2)S1(=O)=O | < 0.001 | 29 | 1.8 | 25.2 |  |
| Cc1ccc(-c2cc(C(F)(F)F)nn2-c2ccc(S(N)(=O)=O)cc2)cc1 [CELECOXIB] |  |  |  |  | IC50 (Homo sapiens [18]): 19 µM; IC50 [19]: 7.9 nM |
| CN1OCC/C(=C\c2cc(C(C)(C)C)c(O)c(C(C)(C)C)c2)S1(=O)=O | 0.2 |  |  |  |  |
| CC(C)(C)c1cc(/C=C2\CCN(O)S2(=O)=O)cc(C(C)(C)C)c1O | 0.01 | 90 | 9.5 | 15.8 | inhibition in vivo at 10 mg/kg (Rattus norvegicus [17]): 3.6% |
| CCN1CC/C(=C\c2cc(C)c(O)c(C)c2)S1(=O)=O |  |  |  |  | IC50 (Rattus norvegicus [9]): > 1000 nM; IC50 (THP-1 [10]): > 100 µM; IC50 (Rattus norvegicus [11]): 21 µM |
| CCCN1CC/C(=C/c2cc(C(C)(C)C)c(O)c(C(C)(C)C)c2)S1(=O)=O | 0.012 | 23 | 0.8 | 11.2 |  |

More lines, main results first:

| IC50 (Cyclooxygenase) [µM] | IC50 (THP-1 [5]) [µM] | IC50 (Rattus norvegicus [7]) [µM] | Structure (SMILES) | inhibition in vivo at 30 mg/kg (Rattus norvegicus [12]) [%] | other results |
| --- | --- | --- | --- | --- | --- |
| 0.0095 | 10 | 2.5 | CCN1CC/C(=C\c2cc(C(C)(C)C)c(O)c(C(C)(C)C)c2)S1(=O)=O | 49.4 | Dose (Rattus norvegicus [1]): 400 mg/kg; IC50 (Homo sapiens [13]): 27 µM; ED50 (Rattus norvegicus [14]): 3.19 mg/kg; ED30 (Rattus norvegicus [2]): 3.5 mg/kg; ED50 (Rattus norvegicus [15]): > 30 mg/kg; Ulcer index (Rattus norvegicus [3]): 1.6 mm; IC50 [16]: 11 nM; ED30 (Rattus norvegicus [6]): 0.76 mg/kg; inhibition in vivo at 10 mg/kg (Rattus norvegicus [17]): 37.8% |
| 0.024 | 20 | 6 | CC(C)(C)c1cc(/C=C2\CCN(C(=O)NO)S2(=O)=O)cc(C(C)(C)C)c1O | 14.9 |  |
| 0.1 | > 100 | 28 | CON(C)C(=O)N1CC/C(=C\c2cc(C(C)(C)C)c(O)c(C(C)(C)C)c2)S1(=O)=O | 11.2 |  |
| < 0.001 | 28 | 4.9 | CC(=O)N1CC/C(=C\c2cc(C(C)(C)C)c(O)c(C(C)(C)C)c2)S1(=O)=O | 21 |  |
| 0.0025 | 20 | 1.5 | CON1CC/C(=C/c2cc(C(C)(C)C)c(O)c(C(C)(C)C)c2)S1(=O)=O | 6 | inhibition in vivo at 10 mg/kg (Rattus norvegicus [17]): 5% |
| 1 |  |  | CC(C)(C)c1cc(/C=C2\CCN(c3ccccn3)S2(=O)=O)cc(C(C)(C)C)c1O |  |  |
| 0.34 |  |  | CN(C)CCN1CC/C(=C\c2cc(C(C)(C)C)c(O)c(C(C)(C)C)c2)S1(=O)=O |  |  |
